Source: patent US5120851A, “Preparation process for making water-soluble lysine salts of (+)2-(4-fluorophenyl)-alpha-methyl-5-benzoxazole acetic acid” (Euroresearch S.r.l., priority 1988, dated 1992)
Structures can show the parent of a compound that is named as a salt.

Assays:
[1] = test system: experimental edema induced by carrageen in a rat's paw; experiment: experimental edema induced by carrageen in a rat's paw; format: in vivo, rat (Sprague Dawley--Charles River); conditions: for ED50: Rattus norvegicus, rat paw carrageen edema, dosed 60 minutes before carrageen, paw volume at 2, 4 and 6 hours; for TI (therapeutic index) LD50 /ED50: LD50 mice oral / ED50 rat paw edema
Description: (§1) The LD50 was determined by the Litchfield-Wilcoxon method on mice using progressive oral doses. […] The paw volume is checked 2, 4 and 6 hours after inoculating the carrageen.

[2] = water-solubility at 20° C.; format: physicochemical
[3] = LD50 by the Litchfield-Wilcoxon method on mice, progressive oral doses; conditions: mouse, in vivo
Description: as §1

[4] = cited from earlier work
[5] = prior art statement; cited from earlier work

## O=C(O)Cc1ccccc1Nc1c(Cl)cccc1Cl [Diclofenac]
[1]
  ED50: 10 mg/kg

## C[C@H](C(=O)O)c1ccc2oc(-c3ccc(F)cc3)nc2c1 [Example 2]
[2]; compared with Example 1
  water-solubility (in words): as in Example 1

## C[C@H](C(=O)O)c1ccc2oc(-c3ccc(F)cc3)nc2c1 (racemic) [Example 1, salt of (+)2-(4-fluorophenyl)-alpha-methyl-5-benzoxazole acetic acid with DL-lysine]
[3]; expressed as flunoxaprofen
  LD50: 720 mg/kg
[2]; water
  solubility: 1000 mg/mL
[1]; listed as Salt of flunoxaprofen with DL-lysine
  TI (therapeutic index) LD50 /ED50: 129.96
[1]; expressed as flunoxaprofen
  ED50: 5.54 mg/kg

## C[C@H](C(=O)O)c1ccc2oc(-c3ccc(F)cc3)nc2c1 [Flunoxaprofen, (+)2-(4-fluorophenyl)-alpha-methyl-5-benzoxazole acetic acid]
[3]
  LD50: 724 mg/kg
[4]; Italian patent No. 1,080,779
  activity of the dextrorotatory form: particularly active
[4]; J. Medic. Chem. 1975, vol 18, No. 1, pp 53-58
  anti-inflammatory, analgesic and antipyretic activity: considerable anti-inflammatory, analgesic and antipyretic activity
[5]
  water-solubility: very limited
[1]
  TI (therapeutic index) LD50 /ED50: 121.18
  ED50: 5.97 mg/kg
